What was measured:
Assay in all cases: relative viability (nuclei count vs DMSO), 5 days (fraction); higher = more cells survive
Sulindac + AZD7762 = compound: CC1=C(CC(=O)O)c2cc(F)ccc2/C1=C\c1ccc([S+](C)[O-])cc1 [Sulindac] + NC(=O)Nc1cc(-c2cccc(F)c2)sc1C(=O)N[C@H]1CCCNC1 [AZD7762] (partner 0.2 µM)
How it was run: (§1)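 Relative viability equals treated-well nuclei counts divided by vehicle-well nuclei counts. Counts came from 4× images of lung cancer cell lines grown in 1536-well plates for 5 days after pin-tool dosing on the day after seeding. Dosing used one drug alone or a fixed anchor-drug dose plus five library-drug doses (not always all listed) in √10 steps, and values are medians of duplicate plates.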

Sulindac + Navitoclax = compound: CC1=C(CC(=O)O)c2cc(F)ccc2/C1=C\c1ccc([S+](C)[O-])cc1 [Sulindac] + CC1(C)CCC(c2ccc(Cl)cc2)=C(CN2CCN(c3ccc(C(=O)NS(=O)(=O)c4ccc(N[C@H](CCN5CCOCC5)CSc5ccccc5)c(S(=O)(=O)C(F)(F)F)c4)cc3)CC2)C1 [Navitoclax] (partner 0.5 µM)
How it was run: as §1

[1] = compound: CN[C@@H]1C[C@H]2O[C@@](C)([C@@H]1OC)n1c3ccccc3c3c4c(c5c6ccccc6n2c5c31)C(=O)NC4 [Staurosporine] + CC(=O)c1c(C)c2cnc(Nc3ccc(N4CCNCC4)cn3)nc2n(C2CCCC2)c1=O [Palbociclib] (partner 0.5 µM)
How it was run: as §1

[2] = compound: O=c1[nH]cc(F)c(=O)[nH]1 [5-Fluorouracil] + CC(=O)c1c(C)c2cnc(Nc3ccc(N4CCNCC4)cn3)nc2n(C2CCCC2)c1=O [Palbociclib] (partner 0.5 µM)
How it was run: as §1

| Cell Line | relative viability (Sulindac + AZD7762; first compound 0.08 µM) | relative viability (Sulindac + AZD7762; first compound 0.253 µM) | relative viability (Sulindac + AZD7762; first compound 2.53 µM) | relative viability (Sulindac + AZD7762; first compound 8 µM) | relative viability (Sulindac + Navitoclax; first compound 0.08 µM) | relative viability (Sulindac + Navitoclax; first compound 0.253 µM) | relative viability (Sulindac + Navitoclax; first compound 0.8 µM) | relative viability (Sulindac + Navitoclax; first compound 2.53 µM) | relative viability (Sulindac + Navitoclax; first compound 8 µM) | relative viability ([1]; first compound 0.005 µM) | relative viability ([1]; first compound 0.01581 µM) | relative viability ([1]; first compound 0.05 µM) | relative viability ([1]; first compound 0.1581 µM) | relative viability ([1]; first compound 0.5 µM) | relative viability ([2]; first compound 0.02 µM) | relative viability ([2]; first compound 0.2 µM) | relative viability ([2]; first compound 0.6325 µM) | relative viability ([2]; first compound 2 µM) | relative viability (Sulindac + AZD7762; first compound 0.8 µM) |
| --- | --- | --- | --- | --- | --- | --- | --- | --- | --- | --- | --- | --- | --- | --- | --- | --- | --- | --- | --- |
| NCI-H596 | 1.06 | 1.16 | 1.23 | 1.27 | 0.901 | 0.953 | 0.812 | 1.02 | 1.13 | – | – | – | – | – | – | – | – | – | – |
| Calu-6 | – | – | – | – | 1.1 | 1.04 | 0.627 | 0.756 | 1.21 | – | – | – | – | – | – | – | – | – | – |
| LCLC-103H | 0.88 | 0.799 | 0.786 | 0.91 | – | – | – | – | – | 0.507 | 0.43 | 0.393 | 0.29 | 0.253 | 0.476 | 0.472 | 0.471 | 0.471 | 0.708 |
| HCC-15 | 1.11 | 1.44 | 1.23 | 1.16 | 0.811 | 0.795 | 0.625 | 0.708 | 0.798 | 0.527 | – | 0.503 | 0.275 | 0.229 | 0.499 | 0.744 | 0.52 | 0.302 | 0.883 |
| H3255 | 0.884 | 0.931 | 0.867 | 1.11 | 0.54 | 0.685 | 0.551 | 0.512 | 0.612 | 0.275 | 0.24 | 0.24 | 0.181 | 0.178 | 0.291 | 0.317 | 0.305 | 0.296 | 0.627 |
| NCI-H1915 | 0.703 | 0.734 | 0.664 | 0.761 | 0.873 | 0.808 | 0.78 | 0.742 | 0.832 | 0.379 | 0.323 | 0.237 | 0.175 | 0.109 | 0.485 | 0.522 | 0.498 | 0.383 | 0.645 |
| NCI-H650 | 1.03 | 0.899 | 0.914 | 0.978 | – | – | – | – | – | 0.262 | 0.208 | 0.224 | 0.234 | 0.199 | 0.316 | 0.278 | 0.244 | 0.263 | 0.766 |
| NCI-H2126 | 1.12 | 1.03 | 1.01 | 1.09 | 0.823 | 0.894 | 0.817 | 0.856 | 0.853 | 0.353 | 0.339 | 0.348 | 0.33 | 0.327 | 0.348 | 0.29 | 0.299 | 0.274 | 0.889 |
| NCI-H838 | 1.05 | 0.976 | 0.886 | 1.04 | 1.33 | 1.19 | 1.1 | 1.18 | 1.39 | 0.151 | 0.138 | 0.151 | 0.121 | 0.0855 | 0.196 | 0.223 | 0.19 | 0.174 | 0.843 |
| NCI-H2342 | 0.76 | 0.495 | 0.491 | 0.5 | – | – | – | – | – | 0.507 | 0.51 | 0.488 | 0.433 | 0.344 | 0.497 | 0.543 | 0.536 | 0.518 | 0.441 |
| COR-L23 | – | – | – | – | 1.19 | 1.09 | – | 0.964 | 1.3 | 0.218 | 0.109 | 0.117 | 0.103 | 0.0791 | 0.288 | 0.315 | 0.206 | 0.144 | – |
| NCI-H520 | – | – | – | – | 1.33 | 1.17 | 1.03 | 1.04 | 1.44 | 0.272 | 0.262 | 0.159 | 0.116 | 0.12 | 0.177 | 0.271 | 0.218 | 0.167 | – |
| NCI-H661 | – | – | – | – | – | – | – | – | – | 0.418 | 0.337 | 0.329 | 0.26 | 0.192 | 0.407 | 0.436 | 0.425 | 0.419 | – |
| NCI-H1299 | – | – | – | – | 1.11 | 1.05 | 1.02 | 1.05 | 1.05 | – | – | – | – | – | – | – | – | – | – |
| NCI-H2009 | – | – | – | – | 1.21 | 1.2 | 1.29 | 1.18 | 1.34 | 0.147 | 0.159 | 0.13 | 0.0987 | 0.0664 | 0.196 | 0.229 | 0.169 | 0.213 | – |
| NCI-H358 | 0.45 | 0.517 | 0.427 | 0.651 | – | – | – | – | – | 0.107 | 0.081 | 0.102 | 0.0861 | 0.0814 | 0.157 | 0.146 | 0.15 | 0.177 | – |
| SK-MES-1 | – | – | – | – | 1.43 | 1.3 | 1.31 | 1.27 | 1.45 | 0.235 | 0.232 | 0.193 | 0.163 | 0.147 | 0.337 | 0.285 | 0.244 | 0.277 | – |
| SW 900 | 0.538 | 0.677 | – | 0.643 | – | – | – | – | – | 0.376 | 0.359 | 0.278 | 0.201 | 0.18 | 0.481 | 0.473 | 0.497 | 0.416 | – |
| NCI-H1703 | 0.129 | 0.14 | 0.111 | 0.17 | 1.14 | 0.978 | 0.877 | 1.1 | 1.45 | – | – | – | – | – | – | – | – | – | – |
| EBC-1 | – | – | – | – | 0.377 | 0.387 | 0.36 | 0.344 | 0.431 | – | – | – | – | – | – | – | – | – | – |
| NCI-H2023 | – | – | – | – | 1.37 | 0.987 | 0.987 | 0.977 | 1.24 | 0.234 | 0.186 | 0.0972 | 0.0704 | 0.0509 | 0.397 | 0.155 | 0.0836 | 0.102 | – |
| IA-LM | – | – | – | – | 0.696 | 0.863 | – | 0.81 | 0.79 | – | – | – | – | – | – | – | – | – | – |
| ABC-1 | 1.16 | – | 0.682 | 0.751 | – | – | – | – | – | – | 0.224 | 0.226 | 0.258 | 0.193 | 0.749 | 0.794 | 0.883 | 0.49 | 0.636 |
| NCI-H322M | 0.469 | 0.42 | 0.575 | 0.546 | 1.28 | 1.37 | 1.08 | 1.27 | 1.29 | 0.476 | 0.386 | 0.388 | 0.433 | 0.467 | – | – | – | – | 0.573 |

Reference: the supplement of paper PMC10307832
